Laboratory results taken from patent US8808692B2, “Compositions comprising immunoreactive reagents and saponins, and methods of use thereof” (CSL Limited, priority 2001, dated 2014).

Columns and labels:
[1] = cited from earlier work; for level of antibody response induced: mice, antigens bovine serum albumin and cytochrome b5; for IgG2a response to cytochrome b5: saponin doses of 20 μg
[2] = system: MO4 tumor or EG7-OVA tumor; assay: Tumor challenge model; format: in vivo, C57B1/6 mice; details: QS-21 (10-20 ug) with monoclonal antibody vs monoclonal antibody alone; 30 to 60 day period
Protocol: C57B1/6 mice are inoculated by s.c. route in the flank with MO4 tumor (1 ×10^5) or EG7-OVA tumor. At 24 to 48 hours after inoculation, mice are injected by IP route with a monoclonal antibody to SIINFEKL (SEQ ID NO: 1)/Class I MHC , or by local SC route in the presence or absence of QS-21 (10 -20 ug). The antitumor effect of the QS-21/monoclonal antibody treatment is compared to that of monoclonal antibody treatment by monitoring the growth of the tumors over a 30 to 60 day period (measurement with calipers). Survival was determined, and significance with respect to time to death was assessed using Cox regression analysis. Mice were also observed daily for signs of toxicity including level of activity, ruffled fur, diarrhea, and general appearance. […] Models and methods for evaluation of the effects of saponins and antibodies, or other immunoreactive reagents are known in the art. (Wooldridge et al., Blood, 1997, 89 (8): 2994-2998, incorporated by reference herein in its entirety).

[3] = system: Fc α R, Fc gamma R1, Fc gamma RII or Fc gamma RIII; assay: Upregulation of Fc receptors (FACScan); format: cell-based; details: QS-21 for example 1-10 ug/ml
Protocol: Monocytes, natural killer cells, or polymorphonuclear cells are incubated in the presence or absence of QS-21 (for example 1-10 ug/ml). The trypsinized cells are incubated at 4° C. for 60 min with monoclonal antibodies specific to Fc α R, Fc gamma R1, Fc gamma RII or Fc gamma RIII. The cells are then incubated with an anti-mouse IgG FITC probe, washed, fixed in paraformaldehyde, and analyzed by FACScan.

[4] = system: target cells (E.G7-OVA or MO4); assay: Enhancement of antibody mediated lysis in vitro (51Cr-labeled target cells); format: cell-based, mice; details: splenocytes incubated with 1 to 10 ug/ml QS-21 for 24 to 72 hours; monoclonal antibody to SIINFEKL/Class I MHC 1 to 10 ug/ml
Protocol: Murine splenocytes (effector cells) are generated from the spleens of naive 6-8week old mice. These effector cells are incubated with 1 to 10 ug/ml of QS-21 or appropriate amount of another immunomodulatory saponin for 24 to 72 hours. At the end of the incubation period, target cells (E.G7-OVA or MO4) are loaded with 51 Cr. Effector cells and labeled target cells are incubated at defined effector:target ratios in the presence and absence of monoclonal antibody to SIINFEKL (SEQ ID NO: 1)/Class I MHC (1 to 10 ug/ml) at […] for 30 to 60minutes. The lysis in the presence of QS-21 and monoclonal is compared to controls without QS-21, without monoclonal, or both.

macrophage cells = assay: Cytokine production in macrophage cells; format: cell-based
[5] = mouse, in vivo; cited from earlier work
[6] = system: S. pneumonia or S. aureus; assay: Opsonophagocytosis assay with HL-60 effector cells; format: cell-based; details: HL-60 effector cells incubated with QS-21, at a given antibody titer
[7] = system: bone marrow derived dendritic cells; assay: Cytokine production in bone marrow derived dendritic cells; format: cell-based
[8] = melanoma patients; cited from earlier work

Row | Substance | level of antibody response induced [1] | IgG2a response to cytochrome b5 [1] | tumor progression [2] | Fc receptors on monocytes, natural killer cells, or polymorphonuclear cells [3] | lysis due to QS-21/monoclonal over monoclonal alone [4] | IL-6 (macrophage cells) | MIP-1-alpha (macrophage cells) | TNF-alpha (macrophage cells) | toxicity in mice [5] | opsonization of bacteria [6] | production of II-12 [7] | production of IL-1 [7] | production of MIP-1-alpha [7] | production of MIP-1-beta [7] | serological response to MELIMMUNE-1 [8]
1 | QS-17 | comparable to other commonly used adjuvants | stimulate IgG2a response | – | – | – | – | – | – | – | – | – | – | – | – | –
2 | QS-18 | comparable to other commonly used adjuvants | stimulate IgG2a response | – | – | – | – | – | – | – | – | – | – | – | – | –
3 | QS-21 | comparable to other commonly used adjuvants | stimulate IgG2a response | delay in tumor progression | Upregulation | enhanced lysis | upregulation | upregulation | upregulation | least toxic | Improved opsonization | decrease the production | increase production | increase production | decrease the production | significantly increased
